How the values were obtained:
[1] = Basic dissociation constant, pKa of compound at 10 uM by UV/Vis spectroscopy; type: physicochemical
[2] = Acidic dissociation constant, pKa of compound at 10 uM by UV/Vis spectroscopy; type: physicochemical
[3] = biological target: T1, High affinity cGMP-specific 3',5'-cyclic phosphodiesterase 9A (Homo sapiens, UniProt O76083); test: Inhibition of PDE9 (unknown origin) using [3H]-cGMP as substrate after 1 hr by scintillation counting method
[4] = biological target: T1, High affinity cGMP-specific 3',5'-cyclic phosphodiesterase 9A; test: Inhibition of PDE9 (unknown origin) at 10 uM using [3H]-cGMP as substrate after 1 hr by scintillation counting method relative to control

T1 sequence (O76083 whole entry): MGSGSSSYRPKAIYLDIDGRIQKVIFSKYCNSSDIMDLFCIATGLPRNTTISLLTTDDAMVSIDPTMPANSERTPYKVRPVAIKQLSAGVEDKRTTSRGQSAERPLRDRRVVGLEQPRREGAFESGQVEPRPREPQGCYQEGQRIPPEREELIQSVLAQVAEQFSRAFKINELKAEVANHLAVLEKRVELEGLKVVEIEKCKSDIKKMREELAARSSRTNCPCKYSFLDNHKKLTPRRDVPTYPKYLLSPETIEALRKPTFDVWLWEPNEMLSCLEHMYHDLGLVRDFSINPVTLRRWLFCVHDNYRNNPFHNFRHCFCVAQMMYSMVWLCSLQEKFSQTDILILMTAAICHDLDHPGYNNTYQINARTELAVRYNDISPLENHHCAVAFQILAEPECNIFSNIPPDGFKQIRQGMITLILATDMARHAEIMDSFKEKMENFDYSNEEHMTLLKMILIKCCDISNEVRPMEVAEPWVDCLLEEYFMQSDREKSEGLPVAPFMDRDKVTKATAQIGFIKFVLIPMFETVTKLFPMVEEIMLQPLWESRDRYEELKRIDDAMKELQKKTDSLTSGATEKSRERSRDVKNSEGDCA

Row | IC50 [3] [nM] | inhibition [4] [%] | further results | SMILES
1 |  |  | pKa at 10 µM [1]: 5.6; pKa at 10 µM [2]: 8.4 | C[C@@H]1CN(Cc2ncccn2)C[C@@]1(F)c1nc2c(cnn2C2CCOCC2)c(=O)[nH]1
2 | 17 |  |  | C[C@@H]1CN(Cc2ccc(F)cc2)C[C@H]1c1nc2c(cnn2C2CCOCC2)c(=O)[nH]1
3 |  |  | pKa at 10 µM [1]: 6.8; pKa at 10 µM [2]: 9.6 | C[C@@H]1CN(Cc2ncccn2)C[C@H]1c1nc2c(cnn2C2CCOCC2)c(=O)[nH]1 [EDELINONTRINE]
4 | 36 |  |  | Cc1ncc(CN2C[C@@H](C)[C@H](c3nc4c(cnn4C4CCOCC4)c(=O)[nH]3)C2)cn1
5 |  | 14 |  | Cc1ncc(CN2C[C@@H](C)[C@](F)(c3nc4c(cnn4C4CCOCC4)c(=O)n3C)C2)cn1
6 |  | 66 |  | Cc1cnc(CN2C[C@@H](C)[C@H](c3nc4c(cnn4C4CCOCC4)c(=O)n3C)C2)cn1
7 | 59 |  |  | Cc1cnc(CN2C[C@@H](C)[C@H](c3nc4c(cnn4C4CCOCC4)c(=O)[nH]3)C2)cn1
8 |  | 22 |  | Cc1cnc(CN2C[C@@H](C)[C@](F)(c3nc4c(cnn4C4CCOCC4)c(=O)n3C)C2)cn1

Reference: ChEMBL document CHEMBL4257517, “Elucidation of fluorine's impact on pKa and in vitro Pgp-mediated efflux for a series of PDE9 inhibitors” (Medchemcomm, 2018)
